“And” between values parts separate entries of the source, which are not always exact repeats. Equal values may be shown once. “Also recorded” adds a separate entry of the source. Read-outs that look alike come from different tables or passages of the source.
Experiments:
squirrel monkeys [1] = assay: Warm-water tail-withdrawal latency in squirrel monkeys; assay type: in vivo, Saimiri sciureus; settings: for ED50: Saimiri, in Primates; for Antinociceptive effect, tail withdrawal latency at 50, 52 and 55 °C: cumulative doses
[2] = Squirrel monkey ventilation (whole-body plethysmograph, air or 5% CO2); assay type: in vivo, Saimiri sciureus; settings: male, monkey, in vivo, other: injection; squirrel monkeys; dose required to decrease minute volume in 5% CO2 to 50% of baseline; read-out: ED50 Respiratory Depression
Experimental: (§1) Gas (either air or a 5% CO2 in air mixture) was introduced to and extracted from the chamber at a constant flow rate of 5 L/min. Experimental sessions consisted of 4–6 consecutive 30 min cycles, each comprising a 15 min exposure to air followed by a 15 min exposure to 5% CO2. Drug effects were determined using cumulative dosing procedures, and injections were administered following each exposure to 5% CO2. Respiratory rate and tidal volume (mL/breath) were recorded over 1 min periods and were multiplied to provide minute volumes. Data from the last three minutes of each exposure to air or CO2 were averaged and used for analysis of drug effects on ventilation.

[3] = Operant responding (FR10 food reinforcement) in squirrel monkeys; settings: male, monkey, in vivo
squirrel monkeys [4] = assay: as above; settings: squirrel monkeys
Swiss Webster mice = assay: Respiration rate and arterial oxygen saturation in mice (MouseOx pulse oximeter); settings: for Effect on oxygen saturation (SpO2) in mice: 6 min to 45 min post-injection, data not shown; for Effect on respiration rate in mice: normal air, s.c., 2i 0.01–0.1 mg/kg, morphine 10 mg/kg, AUC 6–45 min post injection, vs saline
μ-opioid receptor (MOR) = target: T1, μ-opioid receptor (MOR) (Rattus norvegicus, UniProt P33535); assay: Opioid receptor binding, μ sites ([3H]DAMGO), rat brain homogenate
T1 construct: Frozen whole rat brains excluding cerebellum were thawed on ice; from tissue; host or cells: whole rat brain excluding cerebellum, membrane homogenate

δ-opioid receptor (DOR) = target: T2, δ-opioid receptor (DOR) (Rattus norvegicus, UniProt P33533); assay: Opioid receptor binding, δ sites ([3H]DADLE), rat brain homogenate
T2 construct: Frozen whole rat brains excluding cerebellum were thawed on ice; from tissue; host or cells: whole rat brain excluding cerebellum, membrane homogenate

κ-opioid receptor (KOR) = target: T3, κ-opioid receptor (KOR) (Rattus norvegicus, UniProt P34975); assay: Opioid receptor binding, κ sites ([3H]U69,593), rat brain homogenate; settings: for Ki: KOR Binding (Ki), whole rat brain excluding cerebellum, [3H]U69,593, Ki ± SEM
T3 construct: Frozen whole rat brains excluding cerebellum were thawed on ice; from tissue; host or cells: whole rat brain excluding cerebellum, membrane homogenate

rat MOR = target: T4, rat MOR (Rattus norvegicus, UniProt P33535); assay: Stimulation of [35S]GTPγS binding, C6 glioma cell membranes expressing MOR; assay type: biochemical; settings: for MOR % Stimulation, [35S]GTPγS: compared to standard maximal DAMGO; for MOR activity type in the [35S]GTPγS assay: antagonist activity assumed from high MOR affinity and lack of stimulation
T4 construct: expressed in transfected cells; host or cells: C6 rat glioma cells, stably transfected; membranes

rat DOR = target: T5, rat DOR (Rattus norvegicus, UniProt P33533); assay: Stimulation of [35S]GTPγS binding, C6 glioma cell membranes expressing DOR; assay type: biochemical; settings: for EC50: DOR EC50, [35S]GTPγS, C6 cells expressing DOR, mean ± SEM; for DOR % Stimulation, [35S]GTPγS: compared to standard maximal DPDPE
T5 construct: expressed in transfected cells; host or cells: C6 rat glioma cells, stably transfected; membranes

human KOR = target: T6, human KOR (Homo sapiens, UniProt P41145); assay: Stimulation of [35S]GTPγS binding, CHO cell membranes expressing KOR; assay type: biochemical; settings: for KOR EC50, [35S]GTPγS: CHO cells expressing KOR, mean ± SEM, DNS = no stimulation
T6 construct: expressed in transfected cells; membranes

[5] = target: T7, human μ-opioid receptor (OPRM1) (Homo sapiens, UniProt P35372); assay: cell-based; settings: for EC50: MOR cAMP Agonist Potency ± SEM; for Emax: OPRM1, read-out: MOR cAMP % Efficacy
T7 construct: host or cells: HitHunter CHO-K1 cells

[6] = target: T8, human δ-receptor (OPRMD1) (Homo sapiens, UniProt P41143); assay: cell-based; assay type: cell-based; settings: for Emax: CHO-K1, read-out: DOR cAMP % Efficacy; for EC50: DOR cAMP Agonist Potency ± SEM
T8 construct: host or cells: HitHunter CHO-K1 cells

[7] = target: T9, human κ-opioid receptor (OPRK1) (Homo sapiens, UniProt P41145); assay: cell-based; settings: for Emax: CHO-K1, read-out: KOR cAMP % Efficacy; for EC50: KOR cAMP Agonist Potency ± SEM
T9 construct: host or cells: HitHunter CHO-K1 cells

[8] = target: T10, human μ-opioid receptor β-arrestin-2 (Homo sapiens, UniProt P35372); assay: cell-based; settings: for Emax: read-out: MOR Mediated β-arrestin Recruitment (% Control, Emax DAMGO)
T10 construct: enzyme fragment for EFC (β-galactosidase ProLink fragment, by own knowledge of the PathHunter system); host or cells: PathHunter CHO cells

squirrel monkeys [9] = assay: Squirrel monkey ventilation (whole-body plethysmograph, air or 5% CO2); assay type: in vivo, Saimiri sciureus
Experimental: as §1

[10] = dose required to increase tail withdrawal latency to 5 s, read-out: ED50 Antinociception (52 °C)

T1 sequence (P33535 whole entry): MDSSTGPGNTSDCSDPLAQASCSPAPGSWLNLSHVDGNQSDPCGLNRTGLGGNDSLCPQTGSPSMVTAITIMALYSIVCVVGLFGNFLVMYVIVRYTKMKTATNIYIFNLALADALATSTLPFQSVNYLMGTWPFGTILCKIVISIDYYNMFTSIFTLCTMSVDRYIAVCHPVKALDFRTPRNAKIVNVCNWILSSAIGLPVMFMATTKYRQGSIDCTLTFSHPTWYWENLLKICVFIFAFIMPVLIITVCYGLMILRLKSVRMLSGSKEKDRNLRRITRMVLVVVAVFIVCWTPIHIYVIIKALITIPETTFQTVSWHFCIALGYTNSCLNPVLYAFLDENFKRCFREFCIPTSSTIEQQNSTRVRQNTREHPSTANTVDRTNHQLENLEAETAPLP
T4 sequence (P33535 whole entry): as above
T8 sequence (P41143 whole entry): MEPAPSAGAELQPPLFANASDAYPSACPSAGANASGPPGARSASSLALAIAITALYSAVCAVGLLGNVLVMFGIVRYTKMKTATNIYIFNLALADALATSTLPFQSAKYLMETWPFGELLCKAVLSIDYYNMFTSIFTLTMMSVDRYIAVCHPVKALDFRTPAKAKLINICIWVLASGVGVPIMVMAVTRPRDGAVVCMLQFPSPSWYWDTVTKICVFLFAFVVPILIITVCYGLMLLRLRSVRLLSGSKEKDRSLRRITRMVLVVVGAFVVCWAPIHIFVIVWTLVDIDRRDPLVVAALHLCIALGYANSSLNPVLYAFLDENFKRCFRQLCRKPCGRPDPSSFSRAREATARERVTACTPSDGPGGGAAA
T10 sequence (P35372 whole entry, the tested form may be a part): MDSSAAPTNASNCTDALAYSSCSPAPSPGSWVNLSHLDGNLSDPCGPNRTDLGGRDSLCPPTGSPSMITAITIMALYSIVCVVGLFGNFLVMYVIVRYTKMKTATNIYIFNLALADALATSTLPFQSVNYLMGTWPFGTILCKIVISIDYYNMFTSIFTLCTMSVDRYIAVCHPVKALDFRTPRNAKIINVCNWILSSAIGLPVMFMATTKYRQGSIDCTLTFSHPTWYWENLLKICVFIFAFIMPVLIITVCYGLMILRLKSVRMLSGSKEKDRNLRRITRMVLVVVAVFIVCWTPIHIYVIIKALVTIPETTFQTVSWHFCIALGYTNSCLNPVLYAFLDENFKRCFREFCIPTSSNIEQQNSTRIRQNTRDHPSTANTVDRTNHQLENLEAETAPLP
T7 sequence (P35372 whole entry): as the sequence (P35372 whole entry, the tested form may be a part) above
T3 sequence (P34975 whole entry): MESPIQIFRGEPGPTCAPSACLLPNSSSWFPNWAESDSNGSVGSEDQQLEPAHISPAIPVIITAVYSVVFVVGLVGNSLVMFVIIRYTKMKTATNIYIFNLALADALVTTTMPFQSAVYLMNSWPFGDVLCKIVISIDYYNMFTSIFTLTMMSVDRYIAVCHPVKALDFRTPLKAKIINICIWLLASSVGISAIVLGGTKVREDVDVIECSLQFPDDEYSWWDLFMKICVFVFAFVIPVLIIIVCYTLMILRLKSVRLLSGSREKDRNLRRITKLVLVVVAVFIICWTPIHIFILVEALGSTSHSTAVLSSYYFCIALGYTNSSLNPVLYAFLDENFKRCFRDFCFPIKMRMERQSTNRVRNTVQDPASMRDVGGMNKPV
T5 sequence (P33533 whole entry): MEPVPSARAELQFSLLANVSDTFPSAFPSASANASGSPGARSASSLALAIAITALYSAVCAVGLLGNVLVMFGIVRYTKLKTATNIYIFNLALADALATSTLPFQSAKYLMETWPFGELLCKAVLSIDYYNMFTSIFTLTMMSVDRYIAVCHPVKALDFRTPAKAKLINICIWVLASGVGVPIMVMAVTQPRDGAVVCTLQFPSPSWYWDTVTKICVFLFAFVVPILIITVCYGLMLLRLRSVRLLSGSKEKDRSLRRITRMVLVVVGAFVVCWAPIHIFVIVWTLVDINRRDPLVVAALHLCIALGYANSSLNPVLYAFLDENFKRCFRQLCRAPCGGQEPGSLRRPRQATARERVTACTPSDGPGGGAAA
T2 sequence (P33533 whole entry): as above
T6 sequence (P41145 whole entry): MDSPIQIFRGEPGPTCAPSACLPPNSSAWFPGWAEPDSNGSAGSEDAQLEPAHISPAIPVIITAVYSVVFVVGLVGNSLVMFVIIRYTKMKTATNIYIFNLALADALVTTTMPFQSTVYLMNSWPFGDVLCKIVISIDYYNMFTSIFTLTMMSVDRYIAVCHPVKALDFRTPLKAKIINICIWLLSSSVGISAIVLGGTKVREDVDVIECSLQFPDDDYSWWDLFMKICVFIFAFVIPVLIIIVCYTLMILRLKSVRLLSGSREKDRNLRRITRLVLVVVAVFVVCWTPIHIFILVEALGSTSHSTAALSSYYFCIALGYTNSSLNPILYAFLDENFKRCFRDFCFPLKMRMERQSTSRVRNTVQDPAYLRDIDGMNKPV
T9 sequence (P41145 whole entry): as above

Compound	ED50 (squirrel monkeys [1]; [10]) [mg/kg]	Antinociceptive effect, tail withdrawal latency at 50, 52 and 55 °C (squirrel monkeys [1])	ED50 [2] [mg/kg]	Ki (μ-opioid receptor (MOR)) [nM]	Ki (δ-opioid receptor (DOR)) [nM]	Ki (κ-opioid receptor (KOR)) [nM]	EC50 (rat MOR) [nM]	MOR % Stimulation, [35S]GTPγS (rat MOR) [%]	EC50 (rat DOR) [nM]	DOR % Stimulation, [35S]GTPγS (rat DOR)	EC50 [5] [nM]	Emax [5] [%]	Emax [6] [%]	EC50 [6]	Emax [7] [%]	EC50 [7]	Bias Factor [8]	EC50 [8] [nM]	Emax [8] [%]	MOR activity type in the [35S]GTPγS assay (rat MOR)	also measured
CN1CC[C@]23c4c5ccc(O)c4O[C@H]2[C@@H](O)C=C[C@H]3[C@H]1C5 [Morphine, reference compound]	0.14	full antinociceptive effects at all three water temperatures	1.06	–	–	–	–	–	–	–	–	–	–	–	–	–	–	–	–	–	ED50 [3]: 1.3 mg/kg; Behavioral impairment (decreases in operant performance, reinforcers obtained) (squirrel monkeys [4]): dose-related behavioral impairment; Effect on oxygen saturation (SpO2) in mice (Swiss Webster mice): neither morphine nor 2i had any effect; Effect on respiration rate in mice (Swiss Webster mice): significantly reduced respiratory rate; Effect on respiration rate in mice (Swiss Webster mice; listed as morphine): significantly reduced; also recorded: significantly decreased respiratory rate
O=C1CCC2C3Cc4ccc(O)c5c4[C@@]2(CCN3CCc2cccc(F)c2)[C@H]1O5 (stereo partly drawn) [Compound 2f, (7aR,12bS)-9-Hydroxy-3-(3-fluorophenethyl)-2,3,4,4a,5,6-hexahydro-1H-4,12-methanobenzofuro[3,2-e]-isoquinolin-7(7aH)-one]	–	–	–	0.49 ± 0.07	4.48 ± 0.43	30.2 ± 2.3	2.4 ± 0.3	56.8 ± 7.5	54.1 ± 4.7	86.7 ± 8.0%	0.06	102	96.9	1.64 nM	58	56.5 nM	1.94	6.2	40.3	–	KOR EC50, [35S]GTPγS (human KOR): DNS
COc1ccc(CCN2CC[C@]34c5c6ccc(O)c5O[C@H]3C(=O)CCC4C2C6)cc1 (stereo partly drawn) [Compound 2d, (7aR,12bS)-9-Hydroxy-3-(4-methoxyphenethyl)-2,3,4,4a,5,6-hexahydro-1H-4,12-methanobenzofuro[3,2-e]-isoquinolin-7(7aH)-one]	–	–	–	0.67 ± 0.05	5.43 ± 0.47	26.3 ± 1.9	–	–	33.6 ± 6.4	49% and 48.9 ± 3.2%	0.13	103	97.5	2.7 nM and 2.71 nM	96.2	7.4 nM and 7.38 nM	2.69	11.2	23	MOR antagonist	MOR EC50, [35S]GTPγS (rat MOR; C6 cells expressing MOR, mean ± SEM, DNS = no stimulation): DNS; EC50 (human KOR): 5.9 ± 1.7 nM; KOR % Stimulation, [35S]GTPγS (human KOR; compared to standard maximal U69593): 21.8% and 21.8 ± 0.8%
O=C1CCC2C3Cc4ccc(O)c5c4[C@@]2(CCN3CCc2ccc(Cl)cc2)[C@H]1O5 (stereo partly drawn) [Compound 2i, (7aR,12bS)-3-(4-Chlorophenethyl)-9-hydroxy-2,3,4,4a,5,6-hexahydro-1H-4,12-methanobenzofuro[3,2-e]-isoquinolin-7(7aH)-one]	0.015	full effect at moderate (50 °C) and hot (52 °C) but not at very hot (55 °C) water temperatures	0.057	1.09 ± 0.06	7.89 ± 1.1	–	2 ± 1	39.0 ± 2.1	2.4 ± 0.7	83.8 ± 3.7%	0.05	98.8	84.8	0.53 nM	76.6	55 nM and 55.2 nM	0.82	2.44	44.8	potent partial MOR agonist	δ/μ ratio in opioid receptor binding studies (δ-opioid receptor (DOR); DOR Ki / MOR Ki): about 7; KOR Binding, exploratory binding assay (κ-opioid receptor (KOR); radioligand displacement at 100 nM): NT (NT = not tested—inactive (<50% activity at 100 nM concentration in exploratory binding assays (displaced less than half of radioligand)); DOR activity type in the [35S]GTPγS assay (rat DOR): potent full DOR agonist; EC50 δ/μ ratio in the cAMP assay [6]: 10; ED50 (squirrel monkeys [1]; read-out: ED50 Antinociception (50 °C), tail withdrawal, 50 °C water): 0.01 mg/kg; Effect on ventilation (minute volume) during exposure to 5% CO2 mixed in air (hypercapnia) (squirrel monkeys [9]): significantly reduced minute volume in 5% CO2; also recorded: respiration was depressed; also recorded: significantly decreased ventilation; Effect on respiratory rate or ventilation (minute volume) during exposure to air alone (squirrel monkeys [9]; 2i 0.003–0.1 mg/kg, morphine 0.03–3.0 mg/kg): did not depress respiration; also recorded: neither 2i (0.003–0.1 mg/kg) nor morphine (0.03–3.0 mg/kg) had effects; ED50 [3]: 0.022 mg/kg; Behavioral impairment (decreases in operant performance, reinforcers obtained) (squirrel monkeys [4]): dose-related behavioral impairment; Effect on oxygen saturation (SpO2) in mice (Swiss Webster mice): neither morphine nor 2i had any effect; Effect on respiration rate in mice (Swiss Webster mice): did not depress respiration rate; also recorded: no effect on respiration rate
O=C1CCC2C3Cc4ccc(O)c5c4[C@@]2(CCN3CCc2ccc(F)cc2)[C@H]1O5 (stereo partly drawn) [Compound 2e, (7aR,12bS)-9-Hydroxy-3-(4-fluorophenethyl)-2,3,4,4a,5,6-hexahydro-1H-4,12-methanobenzofuro[3,2-e]-isoquinolin-7(7aH)-one]	–	–	–	0.87 ± 0.1	13.4 ± 0.9	44.3 ± 6	2.5 ± 0.3	42.6 ± 2.9	64.2 ± 9.9	–	0.17	101	98.1	2.58 nM	80	19.9 nM	1.39	15.5	45.8	potent partial MOR agonist	DOR activity type in the [35S]GTPγS assay (rat DOR): weak partial DOR agonist; KOR EC50, [35S]GTPγS (human KOR): DNS

Source: PMC7321161, “The Intriguing Effects of Substituents in the N-Phenethyl Moiety of Norhydromorphone: A Bifunctional Opioid from a Set of “Tail Wags Dog” Experiments” (Molecules, 2020)
